Laboratory results reported in PubChem BioAssay (NCI).
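Step 1: Grow cells in 96-well plates. Step 2: Expose to compound for 48 hours at 5 concentrations. Step 3: Interpolate endpoints linearly; if unreached, use highest concentration. The concentration for full growth arrest is given as TGI.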

Experiments:
Assay in all cases: NCI-60 cell line screen, 48 h
CCRF-CEM leukemia = system: CCRF-CEM leukemia
TK-10 renal = system: TK-10 renal
NCI-H522 lung = system: NCI-H522 lung
UO-31 renal = system: UO-31 renal
HCT-116 colon = system: HCT-116 colon
HOP-62 NSCLC = system: HOP-62 NSCLC
MDA-N = system: MDA-N
UACC-62 melanoma = system: UACC-62 melanoma
NCI/ADR-RES ovarian = system: NCI/ADR-RES ovarian
ACHN renal = system: ACHN renal
T-47D breast = system: T-47D breast
UACC-257 melanoma = system: UACC-257 melanoma
SNB-75 CNS = system: SNB-75 CNS
PC-3 prostate = system: PC-3 prostate
A549 NSCLC = system: A549 NSCLC
SK-MEL-28 melanoma = system: SK-MEL-28 melanoma
IGROV1 ovarian = system: IGROV1 ovarian
OVCAR-4 ovarian = system: OVCAR-4 ovarian
EKVX NSCLC = system: EKVX NSCLC
OVCAR-5 ovarian = system: OVCAR-5 ovarian

Structure (SMILES) | TGI (CCRF-CEM leukemia) [µM] | TGI (TK-10 renal) [µM] | TGI (NCI-H522 lung) [µM] | TGI (UO-31 renal) [µM] | TGI (HCT-116 colon) [µM] | TGI (HOP-62 NSCLC) [µM] | TGI (MDA-N) [µM] | TGI (UACC-62 melanoma) [µM] | TGI (NCI/ADR-RES ovarian) [µM] | TGI (ACHN renal) [µM] | TGI (T-47D breast) [µM] | TGI (UACC-257 melanoma) [µM] | TGI (SNB-75 CNS) [µM] | TGI (PC-3 prostate) [µM] | TGI (A549 NSCLC) [µM] | TGI (SK-MEL-28 melanoma) [µM] | TGI (IGROV1 ovarian) [µM] | TGI (OVCAR-4 ovarian) [µM] | TGI (EKVX NSCLC) [µM] | TGI (OVCAR-5 ovarian) [µM]
CN1C(=O)[C@H](c2c[nH]c3ccccc23)[C@H](c2c[nH]c3ccccc23)C1=O | 87 | 61.2 | > 100 | 62.4 | > 59.1 | > 64.1 | > 100 | > 54.4 | > 85.9 | > 66.3 | > 100 | > 63.8 | > 92.8 | > 80.4 | > 100 | > 87.6 | > 45.3 | 50.6 | > 100 | > 100
N#Cc1c(N)nc(SCc2ccccc2)c(C#N)c1-c1ccc(O)cc1 | 38.6 | > 64.7 | 36.3 | 3.9 | 25.1 | 32.6 | 27.5 | 39.8 | 45.7 | 28.9 | 23.4 | > 52.4 | 38.9 | 33.6 | 48.7 | 33 | 29.9 | 30.4 | 26.3 | 32.2
Cc1nc2c(O)c3c(c(O)c2nc1C)C1C=CC3CC1 | 3.53 | 40.8 | 37.5 | 24.8 | 17.3 | 36.4 | 7.37 | 67.2 | 18.5 | 28.5 | 7 | 18.2 | > 92.6 | 35.9 | 63.5 | 30.8 | 17.9 | 6.22 | 24.6 | 34.9
Nc1nc(Cl)c(N)c(NCC2(CO)CCC(CCc3ccccc3)C2)n1 (stereo not given) | 48.8 | > 70.7 | 26.3 | 41.7 | 31.3 | 36.7 | 33.7 | 26 | > 63.1 | > 68.9 | > 59 | 18.8 | 63.9 | 49.7 | > 100 | 31.1 | > 62.4 | 77.5 | > 69.9 | 63.5
CSC1(C(=O)O)C2CCC3C2CCC31 (stereo not given) | > 100 | > 100 | > 100 | > 100 | > 100 | > 100 | > 100 | > 100 | > 100 | > 100 | > 100 | > 100 | > 100 | > 100 | > 100 | > 100 | > 100 | > 100 | > 100 | > 100
O=C1C=C(NCC(c2ccccc2)c2ccccc2)C(=O)c2ncccc21 | 9.7 | 51.5 | 3.57 | 12.2 | > 23.7 | 4.02 | 3.38 | 2.9 | 8.05 | 13.4 | 13.4 | 2.45 | 2.77 | 6.24 | 1.87 | 10 | 8.82 | 7.29 | 7.83 | 10.1
COc1ccc2c(C)cc(N/N=C/c3ccc(C)s3)nc2c1 | > 93.7 | > 54.3 | > 100 | 35.4 | > 46.4 | 56.9 | > 62.7 | > 54.6 | 73.5 | > 52.4 | 26 | > 52.9 | > 83.9 | 37.1 | 39.7 | > 100 | 37.9 | > 63.9 | 32.2 | 30.2
